Results taken from patent US20130245081A1, “Compositions and Methods for Treating Amyotrophic Lateral Sclerosis” (priority 2009, published 2013).
“And” between values parts separate entries of the source, which are not always exact repeats. Identical values can stand only once. Like-named read-outs stand apart in the source and are kept apart here. Marks after values point to notes of the source that are not given here.

Test system: patients with ALS
[1] = 300 mg, through the end of the study
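Further: adverse event data gathered at every clinic visit and phone contact, after first study drug dose, in a blinded trial, counts of affected subjects.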

Structure (SMILES): CCCN[C@@H]1CCc2nc(N)sc2C1 [dexpramipexole, (6R)-2-amino-4,5,6,7-tetrahydro-6-(propylamino)benzothiazole]
- TEAE: Cough (300 mg, through Week 28): 5 (11%) N (%)
- TEAE: Dehydration (300 mg, through Week 28): 3 (7%) N (%)
- TEAE: Depression (300 mg, through Week 28): 5 (11%) N (%)
- TEAE: Dizziness (300 mg, through Week 28): 3 (7%) N (%)
- TEAE: Dysarthria (300 mg, through Week 28): 5 (11%) N (%)
- TEAE: Dysphagia (300 mg, through Week 28): 4 (9%) N (%)
- TEAE: Dyspnoea (300 mg, through Week 28): 6 (14%) N (%)
- TEAE: Fall (300 mg, through Week 28): 11 (25%) N (%)
- TEAE: Fatigue (300 mg, through Week 28): 2 (5%)^a N (%) and 2 (5%) N (%)
- TEAE: Gastrointestinal Disorders (300 mg, through Week 28): 25 (57%) N (%)
- TEAE: General Disorders and Administration Site Conditions (300 mg, through Week 28): 12 (27%) N (%)
- TEAE: Headache (300 mg, through Week 28): 6 (14%) N (%)
- TEAE: Hyperglycaemia (300 mg, through Week 28): 3 (7%) N (%)
- TEAE: Infections and Infestations (300 mg, through Week 28): 17 (39%) N (%)
- TEAE: Injury, Poisoning and Procedural Complication (300 mg, through Week 28): 12 (27%) N (%)
- TEAE: Metabolism and Nutrition Disorders (300 mg, through Week 28): 8 (18%) N (%)
- TEAE: Muscle contractions involuntary (300 mg, through Week 28): 2 (5%)^a N (%) and 2 (5%) N (%)
- TEAE: Muscle spasticity (300 mg, through Week 28): 1 (2%) N (%)
- TEAE: Musculoskeletal and Connective Tissue Disorders (300 mg, through Week 28): 19 (43%) N (%)
- TEAE: Musculoskeletal pain (300 mg, through Week 28): 3 (7%) N (%)
- TEAE: Nausea (300 mg, through Week 28): 3 (7%) N (%)
- TEAE: Neck pain (300 mg, through Week 28): 4 (9%) N (%)
- TEAE: Nervous System Disorders (300 mg, through Week 28): 18 (41%) N (%)
- TEAE: Oedema peripheral (300 mg, through Week 28): 2 N (%) and 1 (2%) N (%)
- TEAE: Pharyngolaryngeal pain (300 mg, through Week 28): 3 (7%) N (%)
- TEAE: Pneumonia (300 mg, through Week 28): 1 (2%) N (%)
- TEAE: Pruritus (300 mg, through Week 28): 0 N (%)
- TEAE: Psychiatric Disorders (300 mg, through Week 28): 14 (32%) N (%)
- TEAE: Rash (300 mg, through Week 28): 3 (7%) N (%)
- TEAE: Respiratory failure (300 mg, through Week 28): 1 (2%) N (%)
- TEAE: Respiratory, Thoracic and Mediastinal Disorders (300 mg, through Week 28): 18 (41%) N (%)
- TEAE: Salivary hypersecretion (300 mg, through Week 28): 5 (11%) N (%)
- TEAE: Sinusitis (300 mg, through Week 28): 5 (11%) N (%)
- TEAE: Skin and Subcutaneous Tissue Disorders (300 mg, through Week 28): 8 (18%) N (%)
- TEAE: Tachycardia (300 mg, through Week 28): 4 (9%) N (%)
- TEAE: Upper respiratory tract infection (300 mg, through Week 28): 3 (7%) N (%)
- TEAE: Urinary tract infection (300 mg, through Week 28): 4 (9%) N (%)
- TEAE: Vomiting (300 mg, through Week 28): 0 N (%)
- serious TEAE: Acute myocardial infarction (300 mg, through Week 28): 0 N (%)
- serious TEAE: Atrial fibrillation (300 mg, through Week 28): 1 (2%) N (%)
- serious TEAE: Blood and Lymphatic System Disorders (300 mg, through Week 28): 1 (2%) N (%)
- serious TEAE: Cardiac Disorders (300 mg, through Week 28): 1 (2%) N (%)
- serious TEAE: Cardiac failure congestive (300 mg, through Week 28): 0 N (%)
- serious TEAE: Cholecystitis acute (300 mg, through Week 28): 1 (2%) N (%)
- serious TEAE: Concussion (300 mg, through Week 28): 1 (2%) N (%)
- serious TEAE: Disease progression (300 mg, through Week 28): 0 N (%)
- serious TEAE: Dyspnoea (300 mg, through Week 28): 0 N (%)
- serious TEAE: Fall (300 mg, through Week 28): 1 (2%) N (%)
- serious TEAE: Gastrointestinal Disorders (300 mg, through Week 28): 0 N (%)
- serious TEAE: General Disorders and Administration Site Conditions (300 mg, through Week 28): 0 N (%)
- serious TEAE: Hepatobiliary Disorders (300 mg, through Week 28): 1 (2%) N (%)
- serious TEAE: Ileus (300 mg, through Week 28): 0 N (%)
- serious TEAE: Infections and Infestations (300 mg, through Week 28): 1 (2%) N (%)
- serious TEAE: Injury, Poisoning and Procedural Complications (300 mg, through Week 28): 1 (2%) N (%)
- serious TEAE: Neutropenia (300 mg, through Week 28): 1 (2%) N (%)
- serious TEAE: Pneumonia (300 mg, through Week 28): 1 (2%) N (%)
- serious TEAE: Pneumonia aspiration (300 mg, through Week 28): 1 (2%) N (%)
- serious TEAE: Pneumonia bacterial (300 mg, through Week 28): 0 N (%)
- serious TEAE: Pulmonary embolism (300 mg, through Week 28): 0 N (%)
- serious TEAE: Respiratory distress (300 mg, through Week 28): 0 N (%)
- serious TEAE: Respiratory failure (300 mg, through Week 28): 1 (2%) N (%)
- serious TEAE: Respiratory, Thoracic and Mediastinal Disorders (300 mg, through Week 28): 2 (5%) N (%)
- serious TEAE: Subdural haematoma (300 mg, through Week 28): 1 (2%) N (%)
- serious TEAE: Sudden death (300 mg, through Week 28): 0 N (%)
- serious TEAE: Viral infection (300 mg, through Week 28): 0 N (%)
- ≧1 TEAE with an outcome of death (300 mg, through Week 28): 1 N (%) and 1 (2%) N (%)
- ≧1 serious TEAE (including death) (300 mg, through Week 28): 5 N (%) and 5 (11%) N (%)
- ≧1 serious treatment-related TEAE (300 mg, through Week 28): 1 (2%) N (%)
- ≧1 severe TEAE (300 mg, through Week 28): 6 (14%) N (%) and 6 N (%)
- Number of TEAEs [1]: 366
- Number of serious TEAEs [1]: 17
- Number of serious treatment-related TEAEs [1]: 2
- Number of severe TEAEs [1]: 23
- Number of treatment-related TEAEs [1]: 61
- Subjects with a TEAE with action taken of study drug discontinued [1]: 3 N (%) and 3 (7%) N (%)
- subjects with TEAEs with an outcome of death (b230 count) [1]: 5 subjects
- ≧1 TEAE with an outcome of death [1]: 4 N (%) and 4 (9%) N (%)
- ≧1 serious TEAE (including death) [1]: 11 N (%) and 11 (25%) N (%)
- ≧1 serious treatment-related TEAE [1]: 2 (5%) N (%)
- ≧1 severe TEAE [1]: 13 N (%) and 13 (30%) N (%)
- ≧1 treatment-related TEAE [1]: 18 (41%) N (%)
- safety and tolerability (total daily doses of 50 mg and 300 mg, ALS subjects): safe and well tolerated
